According to patent US20250049819A1, “METHODS FOR TREATING AND PREVENTING C. DIFFICILE INFECTION” (Paratek Pharmaceuticals, Inc., priority 2016, published 2025):
Converted amounts (≈) assume the structure as drawn. “Also recorded” adds a separate entry of the source. Where two headings read alike, the source gives them in different places.

Assays:
[1] = tested on: C. difficile strain ATCC 43596; test: MIC90 against the infection model strain; format: cell-based
[2] = tested on: C. difficile strain ATCC 43596; test: Hamster model of C. difficile-associated diarrhea, survival; format: in vivo
[3] = tested on: C. difficile and gut microbiota; settings: published gut model studies; cited from earlier work
[4] = tested on: C. difficile strains (N = 27); test: MIC by agar dilution against C. difficile clinical isolates; format: cell-based; settings: 27 isolates
Method: (§1) The activity of omadacycline was tested in vitro against 27 clinical isolates of C. difficile. […] The experiments were carried out using broth and agar microdilution methods according to Clinical and Laboratory Standards Institute (CLSI) guidelines. […] Each test was run in duplicate.

[5] = tested on: C. difficile strains (N = 27); test: MIC by broth microdilution against C. difficile clinical isolates; format: cell-based; design: Broth Microdilution Range (Minimum Inhibitory Concentration): unit not given here; settings: 27 isolates; for MIC50 / MIC90: Clostridioides difficile
Method: as §1

[6] = tested on: gut microflora populations; test: In vitro human gut model, gut microflora populations (Example 4); format: cell-based
Method: (§2) The gut model was inoculated with pooled fecal slurry (5 volunteers ≥60 years of age with no history of antibiotic therapy in the previous 3 months) and left for 2 weeks to allow the bacterial populations to achieve steady state. A single inoculum (˜10^7 cfu/mL) of C. difficile spores (PCR ribotype 027 strain 210) was added into vessel 1 of the gut model on day 14. One week later, on day 21, a second aliquot of C. difficile spores was added, and antibiotic instillation commenced. Model A (LHS) was exposed to moxifloxacin (43 mg/L, once daily, for 7 days) and Model B (RHS) was exposed to omadacycline (430 mg/L, once daily, for 7 days) commenced on day 21.
(§3) Bacterial populations in the gut model were monitored using selective agars to count viable bacterial colonies. Populations were monitored every other day for the first 2 weeks until the steady state was reached, and daily thereafter. C. difficile populations were monitored in all three vessels, and all other bacterial groups (total obligate anaerobes, total facultative anaerobes, lactose fermenting Enterobacteriaceae, Enterococci, total Clostridia, Lactobacilli, Bifidobacteria and B. fragilis group) were monitored in vessels 2 and 3 only. Vessel 3, which represents the distal colon, is of most physiological relevance in terms of propensity to induce CDI. C. difficile total viable counts and spores counts were monitored using viable counting and a differential alcohol shock viable count on selective agars. From day 14 onwards C. difficile cytotoxin was measured using a quantitative VERO cell cytotoxicity assay. Samples of 1 mL each were centrifuged at 16,000×g for 15 minutes, and the supernatants were removed. Six 1:10 serial dilutions (to 10^−6) of culture supernatants from the gut model were prepared. Twenty microliters of the appropriate dilution was added to VERO cell monolayers and a further 20 μL of C. sordellii antitoxin (diluted 1:10 in sterile distilled water) was placed in the corresponding antitoxin row. Monolayers were examined after 24 and 48 hours of incubation in 5% CO2, with a positive result indicated by the presence of cell rounding with concurrent neutralization of the effect by C. sordellii antitoxin. Cytotoxin titers (relative units, RU) were an arbitrary log10 scale, and the cytotoxin titer is reported in the highest dilution with >70% cell rounding, i.e. 10^0=1 RU, 10^−1=2 RU, 10^−2=3 RU. Samples were taken daily from day 21 onwards to determine antimicrobial concentrations in the gut model vessels by a bioassay. Concentrations of moxifloxacin were determined using Isosensitest agar with Escherichia coli as the indicator organism. Concentrations of omadacyline were determined using Wilkins Chalgren agar with Kocuria rhizophila as the indicator organism.

[7] = tested on: C. difficile PCR ribotype 027 strain 210; test: In vitro human gut model, C. difficile germination, proliferation and toxin production (Example 4); format: cell-based
Method: as §2, §3

[8] = Clostridioides difficile, ATCC43596, read-out: MIC90
[9] = Clostridioides difficile, ATCC43596, replicate plate A, read-out: MIC90 Plate A
[10] = Clostridioides difficile, ATCC43596, replicate plate B, read-out: MIC90 Plate B
[11] = oral 50 mg/kg/day for 5 days, N=10
[12] = Wilkins-Chalgren broth, 48 hours anaerobic
[13] = Wilkins-Chalgren broth, 48 hours anaerobic, read-out: Broth Microdilution MIC90
[14] = vessels 2 and 3, once daily for 7 days
[15] = vessel 1, 43 mg/L once daily for 7 days
[16] = vessel 2 and vessel 3, 43 mg/L once daily for 7 days

CN[C@H](CC(C)C)C(=O)N[C@H]1C(=O)N[C@@H](CC(N)=O)C(=O)N[C@H]2C(=O)N[C@H]3C(=O)N[C@H](C(=O)N[C@H](C(=O)O)c4cc(O)cc(O)c4-c4cc3ccc4O)[C@H](O)c3ccc(c(Cl)c3)Oc3cc2cc(c3O[C@@H]2O[C@H](CO)[C@@H](O)[C@H](O)[C@H]2O[C@H]2C[C@](C)(N)[C@H](O)[C@H](C)O2)Oc2ccc(cc2Cl)[C@H]1O [Vancomycin]
MIC90 [1, 8]: 0.06 µg/mL (≈ 0.0414 µM)
MIC90 [1, 9]: 0.06 µg/mL (≈ 0.0414 µM)
MIC90 [1, 10]: 0.06 µg/mL (≈ 0.0414 µM)
Median Survival ([2]; hamster, in vivo): 2 days
percent survival at day 2 post infection ([2]; hamster, in vivo): 40%
percent survival by day 11 [2, 11]: 30%
survival by day 14 [2, 11]: all animals succumbed to the infection

piperacillin-tazobactam
induction of simulated CDI (C. difficile germination and toxin production) in the gut model [3]: do not promote C. difficile germination and toxin production; also recorded: have not induced simulated CDI in the gut model

amoxicillin clavulanate
Agar Microdilution MIC50 ([4]; agar dilution): 50 µg/mL
Agar Microdilution MIC90 ([4]; agar dilution): 1000 µg/mL
Agar Microdilution Range (Minimum Inhibitory Concentration) ([4]; agar dilution): 0.25-1
Broth Microdilution MIC50 [5, 12]: 250 µg/mL
Broth Microdilution MIC90 [5, 12]: 500 µg/mL
Broth Microdilution Range (Minimum Inhibitory Concentration) [5, 12]: 0.12-0.5

CCC[C@@H]1C[C@@H](C(=O)N[C@@H]([C@H]2O[C@H](SC)[C@H](O)[C@@H](O)[C@H]2O)[C@H](C)Cl)N(C)C1 [Clindamycin]
MIC90 [1]: no activity
MIC90 [1, 9]: > 32 µg/mL
MIC90 [1, 10]: > 32 µg/mL
MIC50 [5, 12]: 4000 µg/mL (≈ 9410 µM)
MIC90 [5, 13]: > 16000 µg/mL

CN(C)c1cc(NC(=O)CNC(C)(C)C)c(O)c2c1C[C@H]1C[C@H]3[C@H](N(C)C)C(O)=C(C(N)=O)C(=O)[C@@]3(O)C(O)=C1C2=O [Tigecycline]
MIC90 ([1]; Clostridioides difficile, ATCC43596): 0.06 µg/mL (≈ 0.102 µM)
MIC90 ([1]; Clostridioides difficile, ATCC43596, read-out: MIC90 Plate A): 0.06 µg/mL (≈ 0.102 µM)
MIC90 ([1]; Clostridioides difficile, ATCC43596, read-out: MIC90 Plate B): 0.06 µg/mL (≈ 0.102 µM)
induction of simulated CDI (C. difficile germination and toxin production) in the gut model [3]: do not promote C. difficile germination and toxin production; also recorded: have not induced simulated CDI in the gut model

C[C@@H](O)[C@H]1C(=O)N2C(C(=O)O)=C(SCCN=CN)C[C@H]12 [Imipenem]
MIC50 [5, 12]: 4000 µg/mL (≈ 13400 µM)
MIC90 [5, 13]: 8000 µg/mL (≈ 26700 µM)

Cc1ncc([N+](=O)[O-])n1CCO [Metronidazole]
MIC90 [1, 8]: 0.06 µg/mL (≈ 0.351 µM)
MIC90 [1, 9]: 0.06 µg/mL (≈ 0.351 µM)
MIC90 [1, 10]: 0.06 µg/mL (≈ 0.351 µM)
Agar Microdilution Range (Minimum Inhibitory Concentration) ([4]; agar dilution): 0.06 to 0.5 mg/mL
MIC50 [5, 12]: 120 µg/mL (≈ 701 µM)
MIC90 [5, 13]: 500 µg/mL (≈ 2920 µM)

CO/N=C(\C(=O)N[C@@H]1C(=O)N2C(C(=O)O)=C(COC(C)=O)CS[C@H]12)c1csc(N)n1 [Cefotaxime]
MIC50 [5, 12]: 64000 µg/mL (≈ 141000 µM)

C[C@H]1c2cccc(O)c2C(=O)C2=C(O)[C@]3(O)C(=O)C(C(N)=O)=C(O)[C@@H](N(C)C)[C@@H]3[C@@H](O)[C@@H]21 [Doxycycline]
MIC90 ([4]; Clostridioides difficile): 1 µg/mL (≈ 2.25 µM)
MIC90 ([5]; read-out: MIC90 by broth dilution): 0.5 µg/mL (≈ 1.13 µM)
MIC50 [5, 12]: 30 µg/mL (≈ 67.5 µM)
MIC90 [5, 13]: 500 µg/mL (≈ 1130 µM)

COc1c(N2C[C@@H]3CCCN[C@@H]3C2)c(F)cc2c(=O)c(C(=O)O)cn(C3CC3)c12 [Moxifloxacin]
time for all populations to return to pre-antibiotic levels following end of antibiotic exposure ([6]; all populations): ~1 week
decline in B. fragilis group populations, vessel 2 ([6]; vessel 2, 43 mg/L once daily for 7 days): ~8 log10 cfu/mL
decline in B. fragilis group populations, vessel 3 ([6]; vessel 3, 43 mg/L once daily for 7 days): ~4 log10 cfu/mL
decline in Enterococcus spp. / Enterococci populations [6, 14]: ~4 log10 cfu/mL
decline in Lactobacilli [6, 14]: ~3 log10 cfu/mL
C. difficile toxin detection (VERO cell cytotoxicity assay) ([7]; all vessels): toxin detected in all three vessels
day by which toxin was undetectable in all vessels ([7]; all vessels): ≤ 42 days
signs of simulated CDI ([7]; once daily for 7 days, omadacycline 430 mg/L, moxifloxacin 43 mg/L): induced simulated CDI
peak C. difficile cytotoxin titer, vessel 1 [7, 15]: 2 relative units
peak C. difficile total viable counts, vessel 1 [7, 15]: ~4.5 log10 cfu/mL
peak C. difficile cytotoxin titer, vessel 2 and vessel 3 [7, 16]: 3 relative units
peak C. difficile total viable counts, vessel 2 and vessel 3 [7, 16]: ~6 log10 cfu/mL
